Results as given in patent publication US12239711B2, “Cereblon ligands and bifunctional compounds comprising the same” (Arvinas Operations, Inc., priority 2014, dated 2025).

Key:
Assay type in all cases: cell-based
BRaf = target: T1, BRaf (Homo sapiens, UniProt P15056, V600E); test: BRaf protein degradation assay in A375 cells (western blot / In-Cell Western); settings: for Dmax: A-375
T1 construct: endogenous in cells; host or cells: A375 cells
Protocol: 5. BRaf Protein In Vitro Degradation Assay (A375 Cells) of Table 7
A375 cells were cultured in ATCC DMEM+10% FBS in 12 well plates, and treated with indicated compound from Tables 1-41 or 0.1% DMSO vehicle control for 16 hours. Cells were harvested in Cell Signaling lysis buffer (Cat #9803) with the addition of Roche protease inhibitor tablets (Cat #11873580001), and lysates clarified by microcentrifugation. Proteins were separated by SDS-PAGE, and transferred onto nitrocellulose membranes using an Invitrogen iBlot system. Immunoblotting was performed for BRaf (Santa Cruz Cat #9002), CRAF (BD Cat #610151), and pErk (Cell Signaling Cat #9106). GAPDH (Cell Signaling Cat #2118) was used as a loading control. Quantification was carried out using the BioRad Image Lab 5 software.
6. BRaf In-Cell Western Cellular Degradation Assay (A375 Cells) of Table 7
A375 cells were cultured in ATCC DMEM+10% FBS in 96-well plates, and treated with indicated compounds from Tables-43 or 0.1% DMSO vehicle control for 72 hours. Cells were washed with PBS 1×, and affixed to plate using 4% PFA in phosphate buffered saline for 15 minutes; washed 1× and permeabilized using 0.1% Triton-X-100 in PBS for 5 minutes; washed 1× and blocked with LICOR blocker (Cat. #927-50000) for 1 hour. Cells were then incubated with B-Raf antibody (Santa Cruz Cat #9002, Santa Cruz Cat #528) and tubulin antibody (Sigma #T6074) in LICOR blocker for 18 hours. Cells were washed 3× prior to adding secondary antibodies (LICOR cat #926-32210 and 926-68071) and incubated for 1 hour. Cells were washed 3× and imaged using LICOR Odyssey Software.

BRD4 = target: T2, BRD4 (Homo sapiens, UniProt O60885); test: BRD4 Western protocol in 22Rv-1 or VCaP cells; settings: 16 hours, western blot
T2 construct: 22Rv-1 or VCaP cells were purchased from ATCC and cultured in Dulbecco's Modified Eagle's Medium; host or cells: 22Rv-1 or VCaP cells
Protocol: 7. BRD4 Western Protocol for Table 8
22Rv-1 or VCaP cells were purchased from ATCC and cultured in Dulbecco's Modified Eagle's Medium (ATCC), supplemented with 10% FBS (ATCC) and Penicillin/Streptomycin (Life Technologies). DMSO control and compound treatments (0.003 μM, 0.01 μM, 0.03 μM and 0.1 μM) were performed in 12-well plates for 16 hours. Cells were harvested, and lysed in RIPA buffer (50 mM Tris pH8, 150 mM NaCl, 1% Tx-100, 0.1% SDS, 0.5% sodium deoxycholate) supplemented with protease and phosphatase inhibitors. Lysates were clarified at 16,000 g for 10 minutes, and protein concentration was determined. Equal amount of protein (20 μg) was subjected to SDS-PAGE analysis and followed by immunoblotting according to standard protocols. The antibodies used were BRD4 (Cell Signaling #13440), and Actin (Sigma #5441). Detection reagents were Clarity Western ECL substrate (Bio-rad #170-5060).

androgen receptor (AR) = test: AR ELISA assay in LNCaP and/or VCaP cells; settings: 5 hours
Protocol: 4. AR ELISA Assay Protocol for Table 6
Compounds were evaluated in this assay in LNCaP and/or VCaP cells utilizing similar protocols. The protocols used with VCaP cells are described below. The androgen receptor ELISA assay was performed using PathScani AR Sandwich ELISA (Cell Signaling Catalog #12850) according to the following assay steps:
VCaP cells were seeded at 40,000 cells/well at a volume of 100 μL/well in VCaP assay medium [Phenol red free RPMI (Gibco Cat #11835-030); 5% Charcoal Stripped (Dextran treated) FBS (Omega Scientific, Cat #FB-04); 1% penstrep (Life Technologies, Gibco Cat #: 10378-016)] in Corning 3904 plates. The cells were incubated for a minimum of 3 days. Cells were dosed with PROTACs diluted in 0.01% DMSO and the drug treatment was allowed for 5 hours.
AR ELISA (Cell Signaling) was performed as follows: 1× Cell Signaling Cell lysis buffer was made (Catalogue #9803; comes with the kit). Media from the treated wells is aspirated, and 100 μL 1× cell lysis buffer/well is added. The cells were placed on a shaker for 10 minutes at 4° C. Twenty microliters of lysate was transferred to 100 μl of Diluent in ELISA plate (0.15 μg/ml-0.075 μg/ml). The lysate-diluent mixture was shaken for 30 minutes at 37° C. Allow mouse AR antibody, anti-mouse antibody, TMB, and STOP solution to come to room temperature. The 1× ELISA buffer included in kit was made and loaded in the reservoir. Media from the plates was discarded, the ELISA plate tapped hard on paper towel, and washed 4×200 μl ELISA wash buffer using a plate washer.
One-hundred (100) μL/well of mouse AR detection Ab was added; the plates were covered and shaken at 37° C. for 1 hour; media was discarded from the plates, the plates were tapped on a paper towel, washed 4× with 200 μL ELISA wash buffer with a plate washer.
One-hundred (100) μL/well of anti-mouse—HRP conjugated Ab (comes with the kit) was added; the plates were covered and shaken at 37° C. for 30 minutes; the TMB reagent was allowed to come to room temperature; the media was discard from the plate, the plates were tapped on paper towl, washed 4× with 200 μL of ELISA wash buffer; the plates were tapped the plates on paper towl. One-hundred (100) μL of TMB was added and the plates shaken for 2 minutes—while watching for color development. One-hundred (100) μL Stop solution was added when light blue color developed. Plates were shaken and read at 450 nm.
Progression of prostate cancer in patients treated with anti-androgen therapy usually involves one of several mechanisms of enhanced Androgen Receptor (AR) signaling, including increased intratumoral androgen synthesis, increased AR expression and AR mutations. PROTACs (PROteolysis TArgeting Chimera), which use bi-functional molecules that simultaneously bind a target of choice and an E3 ligase, cause ubiquitination via induced proximity and degradation of the targeted, pathological protein. As opposed to traditional target inhibition, which is a competitive process, degradation is a progressive process. As such, it is less susceptible to increases in endogenous ligand, target expression, or mutations in the target. Thus, this technology appears to be ideal for addressing the mechanisms of AR resistance in patients with prostate cancer. Data was analyzed and plotted using GraphPad Prism software.

T1 sequence (P15056 whole entry V600E): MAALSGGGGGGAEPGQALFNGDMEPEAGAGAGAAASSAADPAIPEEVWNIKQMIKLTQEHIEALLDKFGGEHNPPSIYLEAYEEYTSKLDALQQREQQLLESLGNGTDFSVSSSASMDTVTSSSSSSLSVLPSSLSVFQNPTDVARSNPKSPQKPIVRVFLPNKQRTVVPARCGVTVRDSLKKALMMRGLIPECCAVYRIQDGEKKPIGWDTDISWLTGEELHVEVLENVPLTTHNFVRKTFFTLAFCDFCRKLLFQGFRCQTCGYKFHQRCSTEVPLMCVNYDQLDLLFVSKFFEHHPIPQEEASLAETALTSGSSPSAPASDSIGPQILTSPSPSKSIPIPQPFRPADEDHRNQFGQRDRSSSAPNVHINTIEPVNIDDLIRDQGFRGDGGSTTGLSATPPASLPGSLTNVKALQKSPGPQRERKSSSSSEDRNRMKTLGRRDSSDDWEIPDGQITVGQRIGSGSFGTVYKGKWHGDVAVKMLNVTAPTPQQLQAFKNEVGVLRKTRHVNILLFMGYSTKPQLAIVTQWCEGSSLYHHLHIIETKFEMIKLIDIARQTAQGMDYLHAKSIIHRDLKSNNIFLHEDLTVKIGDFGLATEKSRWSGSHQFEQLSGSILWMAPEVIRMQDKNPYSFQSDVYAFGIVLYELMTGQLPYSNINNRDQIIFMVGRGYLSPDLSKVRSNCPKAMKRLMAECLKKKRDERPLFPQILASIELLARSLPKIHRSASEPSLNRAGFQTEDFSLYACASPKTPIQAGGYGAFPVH
T1 sequence (Q96SW2 whole entry partner): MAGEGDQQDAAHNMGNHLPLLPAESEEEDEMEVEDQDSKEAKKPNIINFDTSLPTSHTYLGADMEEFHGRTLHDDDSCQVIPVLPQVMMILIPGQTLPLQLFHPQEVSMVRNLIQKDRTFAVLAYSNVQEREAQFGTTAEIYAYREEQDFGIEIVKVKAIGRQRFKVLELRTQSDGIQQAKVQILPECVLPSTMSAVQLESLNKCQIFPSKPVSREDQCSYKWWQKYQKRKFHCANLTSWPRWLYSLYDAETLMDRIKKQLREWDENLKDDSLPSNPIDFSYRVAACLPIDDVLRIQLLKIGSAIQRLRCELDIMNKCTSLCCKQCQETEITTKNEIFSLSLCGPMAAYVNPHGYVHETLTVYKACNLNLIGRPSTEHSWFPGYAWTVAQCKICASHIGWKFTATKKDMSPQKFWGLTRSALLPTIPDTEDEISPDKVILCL

Structure (SMILES) | DC50 (BRaf) [nM] | Dmax (BRaf) [%] | AR Dmax (androgen receptor (AR)) | further results
Cc1sc2c(c1C)C(c1ccc(Cl)cc1)=N[C@@H](CC(=O)Nc1ccc(OCCOCCOCCOCCNc3cccc4c3CN([C@H]3CCC(=O)NC3)C4=O)cc1)c1nnc(C)n1-2 [compound 43, 2-((R)-4-(4-chlorophenyl)-2,3,9-trimethyl-6H-thieno[3,2-f][1,2,4]triazolo[4,3-a][1,4]diazepin-6-yl)-N-(4-(2-(2-(2-(2-((1-oxo-2-((R)-6-oxopiperidin-3-yl)isoindolin-4-yl)amino)ethoxy)ethoxy)ethoxy)ethoxy)phenyl)acelamide] | – | – | – | DC50 (BRD4): ≥ 100 nM; Dmax (BRD4): 50 to 75%
Cc1sc2c(c1C)C(c1ccc(Cl)cc1)=N[C@@H](CC(=O)Nc1ccc(OCCOCCOCCOCCOc3cccc4c(=O)n(C5CCC(=O)NC5=O)c(C)nc34)cc1)c1nnc(C)n1-2 (stereo partly drawn) [compound 44, 2-((S)-4-(4-chlorophenyl)-2,3,9-trimethyl-6H-thieno[3,2-f][1,2,4]triazolo[4,3-a][1,4]diazepin-6-yl)-N-(4-(2-(2-(2-(2-((3-(2,6-dioxopiperidin-3-yl)-2-methyl-4-oxo-3,4-dihydroquinazolin-8-yl)oxy)ethoxy)ethoxy)ethoxy)ethoxy)phenyl)acetamide] | – | – | – | DC50 (BRD4): ≥ 100 nM; Dmax (BRD4): < 50%
O=C1CCC(N2C(=O)c3ccc(N4CCN(c5ccc(-n6cc(-c7ccc8c(c7)CC/C8=N\O)c(-c7ccncc7)n6)cc5)CC4)c(-c4ccccc4)c3C2=O)C(=O)N1 (centres unmarked) [compound 41, (E)-2-(2,6-dioxopiperidin-3-yl)-5-(4-(4-(4-(1-(hydroxyimino)-2,3-dihydro-1H-inden-5-yl)-3-(pyridin-4-yl)-1H-pyrazol-1-yl)phenyl)piperazin-1-yl)-4-phenylisoindoline-1,3-dione] | 10 to 100 | ≥ 75 | – | –
CC(C)N(CC1CCN(c2cnc(C(=O)N[C@H]3C(C)(C)[C@H](Oc4ccc(C#N)c(Cl)c4)C3(C)C)cn2)CC1)[C@H]1C[C@H](Oc2ccc3c(c2)C2(CC2)N(C2CCC(=O)NC2=O)C3=O)C1 (mixture of isomers) [compound 38, rac-N-((1r,3r)-3-(3-chloro-4-cyanophenoxy)-2,2,4,4-tetramethylcyclobutyl)-5-(4-((((1r,3r)-3-((2′-(2,6-dioxopiperidin-3-yl)-3′-oxospiro[cyclopropane-1,1′-isoindolin]-6′-yl)oxy)cyclobutyl)(isopropyl)amino)methyl)piperidin-1-yl)pyrazine-2-carboxamide] | – | – | C (C < 50) | –
O=C1CCC(N2C(=O)c3cc(N4CCN(c5ccc(-n6cc(-c7ccc8c(c7)CC/C8=N\O)c(-c7ccncc7)n6)cc5)CC4)cc(-c4ccccc4)c3C2=O)C(=O)N1 (centres unmarked) [compound 39, (E)-2-(2,6-dioxopiperidin-3-yl)-6-(4-(4-(4-(1-(hydroxyimino)-2,3-dihydro-1H-inden-5-yl)-3-(pyridin-4-yl)-1H-pyrazol-1-yl)phenyl)piperazin-1-yl)-4-phenylisoindoline-1,3-dione] | 10 to 100 | 50 to 75 | – | –
COc1cc(N2CCN(CC3CCN(c4ccc(C(=O)N[C@H]5CC[C@H](Oc6ccc(C#N)c(Cl)c6)CC5)nn4)CC3)CC2)cc2c1C(=O)N(C1CCC(=O)NC1=O)C2=O (mixture of isomers) [compound 32, rac-N-((1r,4r)-4-(3-chloro-4-cyanophenoxy)cyclohexyl)-6-(4-((4-(2-(2,6-dioxopiperidin-3-yl)-7-methoxy-1,3-dioxoisoindolin-5-yl)piperazin-1-yl)methyl)piperidin-1-yl)pyridazine-3-carboxamide] | – | – | – | DC50 (androgen receptor (AR)): < 1 nM
CC1(C)[C@H](NC(=O)c2ccc(N3CCN(CCCCCOc4ccn5c(=O)n(C6CCC(=O)NC6=O)nc5c4)CC3)nc2)C(C)(C)[C@H]1Oc1ccc(C#N)c(Cl)c1 (mixture of isomers) [compound 48, N-((1r,3r)-3-(3-chloro-4-cyanophenoxy)-2,2,4,4-tetramethylcyclobutyl)-6-(4-(5-((2-(2,6-dioxopiperidin-3-yl)-3-oxo-2,3-dihydro-[1,2,4]triazolo[4,3-a]pyridin-7-yl)oxy)pentyl)piperazin-1-yl)nicotinamide] | – | – | B (50 <= B < 75) | DC50 (androgen receptor (AR)): < 1 nM
CC(C)N(CC1CCN(c2cnc(C(=O)N[C@H]3CC[C@H](Oc4ccc(C#N)c(Cl)c4)CC3)cn2)CC1)[C@H]1C[C@H](Oc2ccc3c(c2)C2(CC2)N(C2CCC(=O)NC2=O)C3=O)C1 (mixture of isomers) [compound 36, rac-N-((1r,4r)-4-(3-chloro-4-cyanophenoxy)cyclohexyl)-5-(4-((((1r,3r)-3-((2′-(2,6-dioxopiperidin-3-yl)-3′-oxospiro[cyclopropane-1,1′-isoindolin]-6′-yl)oxy)cyclobutyl)(isopropyl)amino)methyl)piperidin-1-yl)pyrazine-2-carboxamide] | – | – | C (C < 50) | –

Continued, in another order:

DC50 (BRaf) [nM] | Dmax (BRaf) [%] | Structure (SMILES) | AR Dmax (androgen receptor (AR)) | further results
10 to 100 | ≥ 75 | Cc1cc2c(cc1N1CCN(c3ccc(-n4cc(-c5ccc6c(c5)CC/C6=N\O)c(-c5ccncc5)n4)cc3)CC1)C(=O)N(C1CCC(=O)NC1=O)C2=O (centres unmarked) [compound 40, (E)-2-(2,6-dioxopiperidin-3-yl)-5-(4-(4-(4-(1-(hydroxyimino)-2,3-dihydro-1H-inden-5-yl)-3-(pyridin-4-yl)-1H-pyrazol-1-yl)phenyl)pipeiazin-1-yl)-6-methylisoindoline-1,3-dione] | – | –
10 to 100 | 50 to 75 | Cc1c(N2CCN(c3ccc(-n4cc(-c5ccc6c(c5)CC/C6=N\O)c(-c5ccncc5)n4)cc3)CC2)ccc2c1C(=O)N(C1CCC(=O)NC1=O)C2=O (centres unmarked) [compound 42, (E)-2-(2,6-dioxopiperidin-3-yl)-5-(4-(4-(4-(1-(hydroxyimino)-2,3-dihydro-1H-inden-5-yl)-3-(pyridin-4-yl)-1H-pyrazol-1-yl)phenyl)piperazin-1-yl)-4-methylisoindoline-1,3-dione] | – | –
